Assay results as given in patent US5447942A, “N-derivatives of (phenylethyl-β-ol) amine, a process for their preparation and pharamaceutical compositions containing the same” (Societe de Conseils de Recherches et d'Applications …, priority 1992, dated 1995).
Where two headings read alike, the source gives them in different places. Each block holds one molecule with its values, some of them ahead of it.

Key:
[1] = biological target: β adrenoceptors; assay: radioligand binding studies in lung membrane (Table A, binding affinity)
From the text: The results are summarised in Table A. Generally, the activity is better for the trans than the cis isomer.

[2] = test system: acetylcholine induced bronchoconstriction; assay: inhibition of acetylcholine induced bronchoconstriction, Konzett and Rossler method (Table B); assay type: in vivo, Male Hartley Guinea Pigs; details: IV; for inhibition in vivo at 0.46 µmol/kg / inhibition in vivo at 1.48 µmol/kg / inhibition in vivo at 0.47 µmol/kg / inhibition in vivo at 0.48 µmol/kg / inhibition in vivo at 0.13 µmol/kg / inhibition in vivo at 1.5 µmol/kg / inhibition in vivo at 0.42 µmol/kg / inhibition in vivo at 4.18 µmol/kg / inhibition in vivo at 4.8 µmol/kg / inhibition in vivo at 1.6 µmol/kg: Cavia porcellus
Experimental: Male Hartley Guinea Pigs (450-500 g) were anaesthetised with ethyl carbamate and prepared for recording bronchoconstriction according to Konzett and Rossler method (Naunym Schmiedebergers Arch. Exp. Path. Pharmakol (1940) 195, 71). To abolish spontaneous respiration, an injection IV of vecuronium bromide (2 mg/kg) was made. Bronchoconstriction was induced by IV injection of Acetylcholine and the animals received one dose of β agonist compound (IV) 5 minutes later.

[3] = 5 min, 0.46 μmol/kg, 5 mn, read-out: bronchoconstriction protection, score 5 mn
[4] = 0.25 h, 0.46 μmol/kg, 15 mn, read-out: bronchoconstriction protection, score 15 mn
[5] = 0.5 h, 0.46 μmol/kg, 30 mn, read-out: bronchoconstriction protection, score 30 mn
[6] = 5 min, 0.47 μmol/kg, 5 mn, read-out: bronchoconstriction protection, score 5 mn
[7] = 0.25 h, 0.47 μmol/kg, 15 mn, read-out: bronchoconstriction protection, score 15 mn
[8] = 0.5 h, 0.47 μmol/kg, 30 mn, read-out: bronchoconstriction protection, score 30 mn
[9] = 5 min, 0.13 μmol/kg, 5 mn, read-out: bronchoconstriction protection, score 5 mn
[10] = 0.25 h, 0.13 μmol/kg, 15 mn, read-out: bronchoconstriction protection, score 15 mn
[11] = 0.5 h, 0.13 μmol/kg, 30 mn, read-out: bronchoconstriction protection, score 30 mn
[12] = 5 min, 0.42 μmol/kg, 5 mn, read-out: bronchoconstriction protection, score 5 mn
[13] = 0.25 h, 0.42 μmol/kg, 15 mn, read-out: bronchoconstriction protection, score 15 mn
[14] = 0.5 h, 0.42 μmol/kg, 30 mn, read-out: bronchoconstriction protection, score 30 mn
[15] = 5 min, 1.6 μmol/kg, 5 mn, read-out: bronchoconstriction protection, score 5 mn
[16] = 0.25 h, 1.6 μmol/kg, 15 mn, read-out: bronchoconstriction protection, score 15 mn
[17] = 0.5 h, 1.6 μmol/kg, 30 mn, read-out: bronchoconstriction protection, score 30 mn

Ki [1]: 400 nM
SMILES: OCc1cc(C(O)CNC[C@H]2CC[C@H](c3ccccc3Cl)O2)ccc1O (relative stereo) [Example 4 (trans), 2-(2'-chlorophenyl)-5-[N-[β-(3'-hydroxymethyl-4'-hydroxy-phenyl)-β-hydroxy-ethyl]-aminomethyl]-tetrahydrofuran]
bronchoconstriction protection, duration of action ([2]; 0.46 μmol/kg): 10 mn
bronchoconstriction protection, duration of action ([2]; 1.48 μmol/kg): > 25 mn
inhibition in vivo at 0.46 µmol/kg [2, 3]: > 75%
inhibition in vivo at 1.48 µmol/kg ([2]; 5 min, 1.48 μmol/kg, 5 mn, read-out: bronchoconstriction protection, score 5 mn): > 75%
inhibition in vivo at 0.46 µmol/kg [2, 4]: < 20%
inhibition in vivo at 1.48 µmol/kg ([2]; 0.25 h, 1.48 μmol/kg, 15 mn, read-out: bronchoconstriction protection, score 15 mn): 50 to 75%
inhibition in vivo at 0.46 µmol/kg [2, 5]: < 20%
inhibition in vivo at 1.48 µmol/kg ([2]; 0.5 h, 1.48 μmol/kg, 30 mn, read-out: bronchoconstriction protection, score 30 mn): 50 to 75%

Ki [1]: 760 nM
SMILES: OCc1cc(C(O)CNC[C@@H]2CC[C@H](c3cccc(Cl)c3)O2)ccc1O (relative stereo) [Example 5 (cis), 2-(3'-chlorophenyl)-5-[N-[β-(3'-hydroxymethyl-4'-hydroxy-phenyl)-β-hydroxy-ethyl]-aminomethyl]-tetrahydrofuran]
bronchoconstriction protection, duration of action ([2]; 0.47 μmol/kg): < 10 mn
inhibition in vivo at 0.47 µmol/kg [2, 6]: 20 to 50%
inhibition in vivo at 0.47 µmol/kg [2, 7]: < 20%
inhibition in vivo at 0.47 µmol/kg [2, 8]: < 20%

Ki [1]: 750 nM
SMILES: OCc1cc(C(O)CNC[C@H]2CC[C@H](c3cccc(Cl)c3)O2)ccc1O (relative stereo) [Example 5 (trans), 2-(3'-chlorophenyl)-5-[N-[β-(3'-hydroxymethyl-4'-hydroxy-phenyl)-β-hydroxy-ethyl]-aminomethyl]-tetrahydrofuran]
bronchoconstriction protection, duration of action ([2]; 0.46 μmol/kg): > 20 mn
inhibition in vivo at 0.46 µmol/kg [2, 3]: 50 to 75%
inhibition in vivo at 0.46 µmol/kg [2, 4]: 20 to 50%
inhibition in vivo at 0.46 µmol/kg [2, 5]: 20 to 50%

Ki [1]: 1100 nM
SMILES: COc1ccc([C@H]2CC[C@@H](CNCC(O)c3ccc(O)c(CO)c3)O2)cc1OC (relative stereo) [Example 8 (cis), 2-(3',4'-dimethoxyphenyl)-5-[N-[β-(3'-hydroxymethyl-4'-hydroxy-phenyl)-β-hydroxyethyl]-aminomethyl]-tetrahydrofuran]
bronchoconstriction protection, duration of action ([2]; 0.48 μmol/kg): < 30 mn
inhibition in vivo at 0.48 µmol/kg ([2]; 5 min, 0.48 μmol/kg, 5 mn, read-out: bronchoconstriction protection, score 5 mn): 50 to 75%
inhibition in vivo at 0.48 µmol/kg ([2]; 0.25 h, 0.48 μmol/kg, 15 mn, read-out: bronchoconstriction protection, score 15 mn): 20 to 50%
inhibition in vivo at 0.48 µmol/kg ([2]; 0.5 h, 0.48 μmol/kg, 30 mn, read-out: bronchoconstriction protection, score 30 mn): < 20%

Ki [1]: 1050 nM
SMILES: COc1ccc([C@H]2CC[C@H](CNCC(O)c3ccc(O)c(CO)c3)O2)cc1OC (relative stereo) [Example 8 (trans), 2-(3',4'-dimethoxyphenyl)-5-[N-[β-(3'-hydroxymethyl-4'-hydroxy-phenyl)-β-hydroxyethyl]-aminomethyl]-tetrahydrofuran]
bronchoconstriction protection, duration of action ([2]; 0.13 μmol/kg): 30 mn
bronchoconstriction protection, duration of action ([2]; 0.46 μmol/kg): > 30 mn
inhibition in vivo at 0.13 µmol/kg [2, 9]: 50 to 75%
inhibition in vivo at 0.46 µmol/kg [2, 3]: 50 to 75%
inhibition in vivo at 0.13 µmol/kg [2, 10]: 20 to 50%
inhibition in vivo at 0.46 µmol/kg [2, 4]: 50 to 75%
inhibition in vivo at 0.13 µmol/kg [2, 11]: 20 to 50%
inhibition in vivo at 0.46 µmol/kg [2, 5]: 20 to 50%

Ki [1]: 810 nM
SMILES: COc1ccc([C@H]2CC[C@@H](CNCC(O)c3ccc(O)c(CO)c3)O2)cc1 (relative stereo) [Example 9 (cis), 2-(4'-methoxyphenyl)-5-[N-[β-(3'-hydroxymethyl-4'-hydroxy-phenyl)-β-hydroxy-ethyl]-aminomethyl]-tetrahydrofuran]
bronchoconstriction protection, duration of action ([2]; 0.46 μmol/kg): 20 mn
inhibition in vivo at 0.46 µmol/kg [2, 3]: 50 to 75%
inhibition in vivo at 0.46 µmol/kg [2, 4]: 20 to 50%
inhibition in vivo at 0.46 µmol/kg [2, 5]: < 20%

Ki [1]: 590 nM
SMILES: COc1ccc([C@H]2CC[C@H](CNCC(O)c3ccc(O)c(CO)c3)O2)cc1 (relative stereo) [Example 9 (trans), 2-(4'-methoxyphenyl)-5-[N-[β-(3'-hydroxymethyl-4'-hydroxy-phenyl)-β-hydroxy-ethyl]-aminomethyl]-tetrahydrofuran]
bronchoconstriction protection, duration of action ([2]; 0.46 μmol/kg): > 30 mn
inhibition in vivo at 0.46 µmol/kg [2, 3]: > 75%
inhibition in vivo at 0.46 µmol/kg [2, 4]: 50 to 75%
inhibition in vivo at 0.46 µmol/kg [2, 5]: 20 to 50%

Ki [1]: 1900 nM
SMILES: COc1cc([C@H]2CC[C@@H](CCNCC(O)c3ccc(O)c(CO)c3)O2)cc(OC)c1OC (relative stereo) [Example 14 (cis), 2-(3',4',5'-trimethoxyphenyl)-5-[N-[β-(3'-hydroxymethyl-4'-hydroxy-phenyl)-β-hydroxy-ethyl]-aminoethyl]-tetrahydrofuran]
bronchoconstriction protection, duration of action ([2]; 1.5 μmol/kg): 30 mn
inhibition in vivo at 1.5 µmol/kg ([2]; 5 min, 1.5 μmol/kg, 5 mn, read-out: bronchoconstriction protection, score 5 mn): > 75%
inhibition in vivo at 1.5 µmol/kg ([2]; 0.25 h, 1.5 μmol/kg, 15 mn, read-out: bronchoconstriction protection, score 15 mn): 20 to 50%
inhibition in vivo at 1.5 µmol/kg ([2]; 0.5 h, 1.5 μmol/kg, 30 mn, read-out: bronchoconstriction protection, score 30 mn): 20 to 50%

Ki [1]: 760 nM
SMILES: COc1cc([C@H]2CC[C@H](CCCNCC(O)c3ccc(O)c(CO)c3)O2)cc(OC)c1OC (relative stereo) [Example 15 (trans), 2-(3',4',5'-trimethoxyphenyl)-5-[-N-[β-(3'-hydroxymethyl-4'-hydroxy-phenyl)-β-hydroxy-ethyl]-aminopropyl]-tetrahydrofuran]
bronchoconstriction protection, duration of action ([2]; 0.42 μmol/kg): 20 mn
bronchoconstriction protection, duration of action ([2]; 4.18 μmol/kg): > 50 mn
inhibition in vivo at 0.42 µmol/kg [2, 12]: > 75%
inhibition in vivo at 4.18 µmol/kg ([2]; 5 min, 4.18 μmol/kg, 5 mn, read-out: bronchoconstriction protection, score 5 mn): > 75%
inhibition in vivo at 0.42 µmol/kg [2, 13]: 50 to 75%
inhibition in vivo at 4.18 µmol/kg ([2]; 0.25 h, 4.18 μmol/kg, 15 mn, read-out: bronchoconstriction protection, score 15 mn): > 75%
inhibition in vivo at 0.42 µmol/kg [2, 14]: < 20%
inhibition in vivo at 4.18 µmol/kg ([2]; 0.5 h, 4.18 μmol/kg, 30 mn, read-out: bronchoconstriction protection, score 30 mn): 50 to 75%

Ki [1]: 410 nM
SMILES: OCc1cc(C(O)CNCC2CCC(c3ccccc3)O2)ccc1O (stereo not drawn) [Example 1, 2-phenyl-5-[N-[β-(3'-hydroxymethyl-4'-hydroxy-phenyl)-β-hydroxy-ethyl]aminomethyl]-tetrahydrofuran]
bronchoconstriction protection, duration of action ([2]; 4.8 μmol/kg): 0 mn
inhibition in vivo at 4.8 µmol/kg ([2]; 5 min, 4.8 μmol/kg, 5 mn, read-out: bronchoconstriction protection, score 5 mn): < 20%
inhibition in vivo at 4.8 µmol/kg ([2]; 0.25 h, 4.8 μmol/kg, 15 mn, read-out: bronchoconstriction protection, score 15 mn): < 20%
inhibition in vivo at 4.8 µmol/kg ([2]; 0.5 h, 4.8 μmol/kg, 30 mn, read-out: bronchoconstriction protection, score 30 mn): < 20%

Ki [1]: 1800 nM
SMILES: OCc1cc(C(O)CNCC2CCC(c3ccccc3F)O2)ccc1O (stereo not drawn) [Example 6, 2-(2'-fluorophenyl)-5-[N-[β-(3'-hydroxymethyl-4'-hydroxy-phenyl)-β-hydroxy-ethyl]-aminomethyl]-tetrahydrofuran]
bronchoconstriction protection, duration of action ([2]; 0.47 μmol/kg): < 30 mn
inhibition in vivo at 0.47 µmol/kg [2, 6]: 50 to 75%
inhibition in vivo at 0.47 µmol/kg [2, 7]: 20 to 50%
inhibition in vivo at 0.47 µmol/kg [2, 8]: 20 to 50%

Ki [1]: 350 nM
SMILES: OCc1cc(C(O)CNCC2CCC(c3ccncc3)O2)ccc1O (stereo not drawn) [Example 12, 2-(4'-pyridyl)-5-[N-[β-(3'-hydroxymethyl-4'-hydroxy-phenyl)-β-hydroxy-ethyl]-aminomethyl]-tetrahydrofuran]
bronchoconstriction protection, duration of action ([2]; 0.13 μmol/kg): > 30 mn
bronchoconstriction protection, duration of action ([2]; 0.42 μmol/kg): > 30 mn
inhibition in vivo at 0.13 µmol/kg [2, 9]: 50 to 75%
inhibition in vivo at 0.42 µmol/kg [2, 12]: 50 to 75%
inhibition in vivo at 0.13 µmol/kg [2, 10]: 20 to 50%
inhibition in vivo at 0.42 µmol/kg [2, 13]: 50 to 75%
inhibition in vivo at 0.13 µmol/kg [2, 11]: 20 to 50%
inhibition in vivo at 0.42 µmol/kg [2, 14]: 20 to 50%

Ki [1]: 570 nM
SMILES: OCc1cc(C(O)CNCCCC2CCC(c3ccccc3Cl)O2)ccc1O (stereo not drawn) [Example 16, 2-(2'-chlorophenyl)-5-[N-[β-(3'-hydroxymethyl-4'-hydroxy-phenyl)-β-hydroxy-ethyl]-aminopropyl]-tetrahydrofuran]
bronchoconstriction protection, duration of action ([2]; 1.6 μmol/kg): > 15 mn
inhibition in vivo at 1.6 µmol/kg [2, 15]: 20 to 50%
inhibition in vivo at 1.6 µmol/kg [2, 16]: 20 to 50%
inhibition in vivo at 1.6 µmol/kg [2, 17]: < 20%

Ki [1]: 1600 nM
SMILES: COc1cc(C2CC(CNCC(O)c3ccc(O)c(CO)c3)CO2)cc(OC)c1OC (centres unmarked) [Example 18]
bronchoconstriction protection, duration of action ([2]; 1.6 μmol/kg): 30 mn
inhibition in vivo at 1.6 µmol/kg [2, 15]: 50 to 75%
inhibition in vivo at 1.6 µmol/kg [2, 16]: 20 to 50%
inhibition in vivo at 1.6 µmol/kg [2, 17]: 20 to 50%
